This is an account of results in a melting point compilation (Tetko et al.; mined from patent text by program, amines drawn as free bases though some values may be those of a salt).

The melting point is the temperature of the solid-liquid transition. In turn, `CCOC(=O)N1CCN(C(C#N)c2ccc(OC)c(OC)c2OC)CC1` (configuration not stated) had a melting point of 138 to 139 °C.

Take `CC(C)[C@@H](NS(=O)(=O)c1ccc(-c2ccsc2)cc1)C(=O)O`: the melting point came to 169 °C.

`CCOC(=O)c1nc(-c2ccc(Cl)cc2F)nc(N)c1Cl` yielded a melting point of 131 to 132 °C.

The compound `Cc1cn(Cc2cc(C)c3c(c2)-c2[nH]nc(-c4ccsc4)c2C3)cn1` yielded a melting point of 240 to 242 °C.

Compound `C=CCn1c(N)nc(N2CCc3ccccc3CC2)c(C#N)c1=O` had a melting point of 181 to 182 °C.

On to `CS(=O)c1c(C(=N)NN)nn(-c2c(Cl)cc(C(F)(F)F)cc2Cl)c1N` (configuration not stated), for which the melting point amounted to 210 °C.

Compound `C[Si](C)(C)CCc1cn(-c2c(Cl)cc(C(F)(F)F)cc2Cl)nc1C#N` returned a melting point of 128 to 129 °C.

In turn, `CC(=O)O[C@H](CC(=O)c1ccccc1)C(=O)O` returned a melting point of 118 to 121 °C.

Regarding `CC(C)N1C(=O)c2cnc(Cl)cc2C1=O`, the melting point was 94 to 96 °C.

The compound `Cc1nn(C(C)(C)C)c(N)c1C(N)=O` yielded a melting point of 195 to 196 °C.

`Oc1ccc(Br)cc1C12CC3CC(CC(C3)C1)C2` returned a melting point of 140 to 141 °C.

Take `Cc1ccc(-c2nc(-c3ccc(C)cc3C)nc(-c3cc(C(C)(C)c4ccccc4)c(O)cc3O)n2)c(C)c1`: the melting point fell in the range of 168 to 170 °C.

In the case of `CCN(CC)CCNc1nc2cccnc2n(-c2ccc(Cl)cc2)c1=O`, the melting point lay in the range of 149 to 150 °C.

In turn, `CNC(=NS(=O)(=O)c1ccc(C(F)(F)F)cc1)N1CC(c2ccccc2)C(c2ccc(Cl)cc2)=N1` (single isomer, unassigned; (-)) came in with a melting point of 157 to 160 °C.

`Cc1c(C=CCO)[nH]c(=O)c2c1ccc1nc(Nc3c(Cl)cccc3Cl)n(C)c12`: the melting point is 298 to 300 °C.

On to `CSc1ccc(C(=O)C#CCO)cc1`, for which the melting point lay within 73 to 74 °C.

Take `Cc1cc(NC(=O)CC(C)(C)C)c2c(c1)C(c1ccc(C(C)C)cc1)C(C)(C)O2` (configuration not stated): the melting point lay in the range of 64 to 68 °C.

In turn, `Cn1c2ccccc2c2cc(NC(=O)c3ccccc3Cl)ccc21` showed a melting point of 206 °C.

Consider `Cc1cc(O)cc2c1C(C)(C)CC2(C)C`, for which the melting point came to 120 °C.

As for `O=C(O)COc1ccc(-c2nc3cnccc3[nH]2)c(O)c1`, the melting point stood at 235 °C.

`O=C(O)[C@@H]1CCCN1C(=O)C(CS)CS` gave a melting point of 138 to 140 °C.

`CC(=NOCCOc1ccc(CC2SC(=O)N(C(c3ccccc3)(c3ccccc3)c3ccccc3)C2=O)cc1)c1ccc(-c2ccccc2)nc1` (configuration not stated): the melting point was 186 to 187 °C.

`CCn1nc(C#Cc2ccccc2)ccc1=O` registered a melting point of 74 to 75 °C.

In turn, `NC(=O)NC[C@@H]1CCCc2cc(Sc3cccc(F)c3)ccc21` had a melting point of 115 to 116 °C.

On to `O=C(c1ccccc1F)N1C(=O)c2ccccc2S1(=O)=O`, for which the melting point lay within 148 to 151 °C.

Compound `O=C1C(=O)N(CCCN2CCN(C(c3ccccc3)(c3ccccc3)c3ccccc3)CC2)c2ccccc21` registered a melting point of 145 to 149 °C.

Compound `CCOc1cc2cc3ncc(C#N)c(Nc4cc(OC)c(Cl)cc4C)c3cc2cc1OCCN1CCOCC1` displayed a melting point of 195 to 196 °C.

`Cc1cccc(NC(=O)NCC(=O)N(c2ccccc2)C(C(=O)OC(C)(C)C)C(=O)OC(C)(C)C)c1` yielded a melting point of 175 °C.

Regarding `O=C1CCCCN1[C@@H]1c2cc(C(F)(F)F)ccc2OC(CF)(CF)[C@H]1O` (relative stereo), the melting point was in the range of 184 to 187 °C.

Compound `Cc1ccc(SN(CC(=O)OCc2ccccc2)CP(=O)(Oc2ccccc2)Oc2ccccc2)cc1` returned a melting point of 108 to 111 °C.

As to `CN1C(=O)[C@H](NC(=O)C2CCC3(CC2)CCN(C(=O)OC(C)(C)C)CC3)N=C(c2ccccc2)c2ccccc21`, the melting point was 135 to 138 °C.

Regarding `Cc1nnc(-c2ccc(F)cc2F)n2nc(OCc3ncnn3C)c(-c3ccsc3)c12`, the melting point was in the range of 144 to 146 °C.

`CCn1ncc2c3[nH]nc4c3c(nc21)CCc1ccccc1-4` gave a melting point of 229 to 231 °C.

Take `COc1ccc(-c2cc(N3CCCCC3)c(C#N)c3c2-c2ccccc2C3=O)cc1`: the melting point was 210 to 212 °C.

In the case of `O=C(NCc1ccc2c(c1)OCO2)c1ccc2[nH]c(=O)n(Cc3ccc4c(c3)OCO4)c(=O)c2c1`, the melting point is 245 °C.

Regarding `CSCc1cc(O)cc2cc(-c3ccc(O)cc3)oc12`, the melting point is 188 to 190 °C.

Take `CN(C)N1CSC(=CCc2cc(C(C)(C)C)c(O)c(C(C)(C)C)c2)C1=O`: the melting point lay within 181 to 186 °C.

In turn, `C[C@H](C#Cc1cc(Cc2ccc(F)cc2)cs1)N(O)C(N)=O` displayed a melting point of 105 to 108 °C.

`CNc1ccccc1C(C)=O` gave a melting point of 34 to 35 °C.

As to `O=C(Nc1ccc(OCCN2CCOCC2)c2ccccc12)c1cccc(N2CCOCC2)c1`, the melting point is 90 to 92 °C.

Take `CC(C)(C)CC(=O)Nc1ccc2oc3c(c2c1)CCC3`: the melting point lay within 196 to 197 °C.

In turn, `COC(=O)c1ccc2c(c1)Sc1ccccc1N=C2Cl` showed a melting point of 134 to 136 °C.

The compound `C=CC[C@H]1CC(C(=O)OCC[Si](C)(C)C)=C[C@@H](OC(C)C)[C@@H]1NC(C)=O` gave a melting point of 64 to 65 °C.

Regarding `O=C(Nc1n[nH]c(=S)s1)N[C@@H](Cc1ccccc1)C(=O)N1CCN(c2ccccc2)CC1`, the melting point was in the range of 210 to 211 °C.

The compound `COc1ccc(OCCCCCN2CCC(CNC(=O)c3cc(Cl)c(N)cc3OC)CC2)cc1OC` had a melting point of 85 to 87 °C.

The compound `N#Cc1ccc2nc(C(=O)NCc3cccc(NC(=O)CCc4nc[nH]n4)c3)[nH]c(=O)c2c1` had a melting point of 298 to 301 °C.

`O=C(O)c1cc(-c2cccc(C(F)(F)F)c2)ns1`: the melting point was 162 to 164 °C.

With `Fc1ccc(-c2cnn3cnnc3n2)cc1`, the melting point is over 300 °C.

With `COc1ccccc1N1CCN(CCNC(=O)c2nsc3ccccc23)CC1`, the melting point was in the range of 107 to 110 °C.

`CSc1ccc2c3c(cccc13)C(=O)N2` came in with a melting point of 167 to 172 °C.

The compound `C=COC(=O)[C@H](Cc1ccccc1)NC(C)=O` yielded a melting point of 90 to 93 °C.

`O=c1[nH]c(=O)n2c3c1cnn3C(c1cccnc1)=CC2` showed a melting point of 292 to 295 °C.

As for `CC(C)C(=O)OC1C(n2ccc(=O)[nH]c2=O)OC(COC(=O)c2ccc(Cl)cc2)C1(C#C[Si](C)(C)C)OC(=O)C(C)C` (configuration not stated), the melting point was 160 to 161 °C.

`CC(C)c1cccc(C(C)C)c1NC(=O)C1c2ccccc2COc2cc(Br)ccc21` (configuration not stated): the melting point was in the range of 170 to 172 °C.

Compound `CCOCn1c(N)c(C#N)c2c(N)ncnc21` showed a melting point of 229 to 230 °C.

For `Cc1nnc2c(Cl)nc3ccccc3n12`, the melting point fell in the range of 215 to 222 °C.

On to `COc1ccc(-c2cc3cc(Br)ccc3o2)cc1`, for which the melting point was determined as 189 °C.

The compound `OCCN(Cc1ccccc1)c1nc2ccccc2s1` gave a melting point of 95 to 96 °C.

With `COc1cc(Cl)cc(CC(O)CO)c1OCc1ccccc1` (configuration not stated), the melting point lay within 65 to 68 °C.

`COC(=O)c1cc([N+](=O)[O-])ccc1OC(C)=O` showed a melting point of 70 to 72 °C.

In the case of `COc1cc(C(=O)CCC(=O)c2cc(OC)c(OC)c(OC)c2)cc(I)c1O`, the melting point was in the range of 189 to 190 °C.

The compound `OC[C@@H]1CCCN1c1nc2ccccc2s1` gave a melting point of 110 °C.
